Reference: publication PMC5889410, “Design and Biological Evaluation of Antifouling Dihydrostilbene Oxime Hybrids” (Marine Biotechnology (New York, N.y.), 2018)
In brackets after ≈: the same amount, converted by molar mass.

Columns and labels:
[1] = system: Balanus improvisus cyprid larvae; conditions: cited from earlier work
[2] = system: Halomonas aquamarina; assay: Bacterial growth assay (OD 630 nm); type: cell-based; conditions: Vreelandella aquamarina, 48 h incubation, 10–0.01 μg/mL tested, read-out: MIC against the growth of marine bacteria, H.a.
From the text: (§1) Cyprid larvae of B. improvisus were reared in a laboratory cultivating system at Tjärnö Marine Biological Laboratory, University of Gothenburg, Sweden, as previously described by Berntsson et al. ([2000]). Four pure, but non-axenic, marine microalgae (obtained from Algobank, Caen, France) and 10 marine bacterial strains were used (Table 1) as representative microfoulers. These strains represent fouling species encountered in both estuarine and marine environments (Moodie et al. [2017b]). The bacteria were grown at 26 °C in a marine medium, composed of 0.5% peptone (neutralized bacteriological peptone, Oxoid Ltd.) in filtered (Whatman 1001–270, pore size 11 μm) natural seawater. Microalgae were grown and maintained at 22 °C in F/2 medium.
(§2) Bacterial strain adhesion and growth were determined according to the methods of Thabard et al. ([2011]). Bacterial suspensions (100-μL aliquots, 2 × 10^8 colony forming units/mL) were aseptically added to the compound containing microplate wells (10–0.01 μg/mL), and the plates were incubated for 48 h at 26 °C. Media only was used as a blank. Bacterial growth was monitored spectroscopically at 630 nm. The minimal inhibitory concentration (MIC) for bacterial growth was defined as the lowest concentration which results in a decrease in OD. After 48-h incubation time, the bacterial adhesion assay was conducted by emptying the wells and rinsing with sterile seawater (100 μL) to remove non-attached cells, and air-drying at room temperature. The residual bacterial biofilm was stained with aqueous crystal violet (100 μL, 0.3% v/v) and the OD measured at 595 nm (Sonak and Bhosle [1995]). […] If inhibition was observed, toxicity tests were conducted. The well contents were transferred into a flask of fresh media, and growth was measured after 5 days of additional incubation. The mode of action was deemed biostatic if an increase in OD was measured at 595 nm (Moodie et al. [2017a]).

[3] = system: Pseudoalteromonas elyakovii; assay: Bacterial growth assay (OD 630 nm); type: cell-based; conditions: 48 h incubation, 10–0.01 μg/mL tested, read-out: MIC against the growth of marine bacteria, P.e.
From the text: as §1, §2

[4] = system: Roseobacter litoralis; assay: Bacterial growth assay (OD 630 nm); type: cell-based; conditions: 48 h incubation, 10–0.01 μg/mL tested, read-out: MIC against the growth of marine bacteria, R.l.
From the text: as §1, §2

[5] = system: Shewanella putrefaciens; assay: Bacterial growth assay (OD 630 nm); type: cell-based; conditions: 48 h incubation, 10–0.01 μg/mL tested, read-out: MIC against the growth of marine bacteria, S.p.
From the text: as §1, §2

[6] = system: Vibrio aestuarianus; assay: Bacterial growth assay (OD 630 nm); type: cell-based; conditions: 48 h incubation, 10–0.01 μg/mL tested, read-out: MIC against the growth of marine bacteria, V.a.
From the text: as §1, §2

[7] = system: Vibrio carchariae; assay: Bacterial growth assay (OD 630 nm); type: cell-based; conditions: Vibrio harveyi, 48 h incubation, 10–0.01 μg/mL tested, read-out: MIC against the growth of marine bacteria, V.c.
From the text: as §1, §2

[8] = system: Vibrio harveyi; assay: Bacterial growth assay (OD 630 nm); type: cell-based; conditions: 48 h incubation, 10–0.01 μg/mL tested, read-out: MIC against the growth of marine bacteria, V.h.
From the text: as §1, §2

[9] = system: Vibrio natriegens; assay: Bacterial growth assay (OD 630 nm); type: cell-based; conditions: 48 h incubation, 10–0.01 μg/mL tested, read-out: MIC against the growth of marine bacteria, V.n.
From the text: as §1, §2

[10] = system: Vibrio proteolyticus; assay: Bacterial growth assay (OD 630 nm); type: cell-based; conditions: 48 h incubation, 10–0.01 μg/mL tested, read-out: MIC against the growth of marine bacteria, V.p.
From the text: as §1, §2

[11] = system: marine bacteria; assay: Bacterial growth assay, whole panel of ten strains; type: cell-based, 10 marine bacterial strains; conditions: tested up to 10 μg/mL
From the text: as §1, §2

[12] = system: Halamphora coffeaeformis; assay: Microalgal adhesion assay (chlorophyll a); type: cell-based; conditions: Halamphora coffeiformis, 120 h, 5 days incubation, 10–0.01 μg/mL tested, read-out: MIC against the adhesion (A) of microalgae, H. coffeaformis
From the text: as §1
(§3) Microplates containing the compounds in ranging concentrations (10–0.01 μg/mL) were prepared from MeOH stock solutions as previously described (Trepos et al. [2014]; Moodie et al. [2017a]). Microalgal stock solutions were prepared using the chlorophyll analysis methodology of Chambers et al. ([2011]). The pretreated microplate wells were treated with 100 μL of the algal stock solutions (0.1 mg chlorophyll a/mL). The plates were then incubated for 5 days at 20 °C under constant light exposure (140 μmol m^−2 s^−1). Both microalgal adhesion and growth inhibition were measured. Growth was determined by analysis of liberated chlorophyll a after centrifugation and methanol addition. Chlorophyll a was quantified fluorometrically. MIC value for algal growth was defined as the lowest concentration yielding a decrease in chlorophyll a content. Microalgal adhesion was determined in an analogous manner where the non-attached algal cells were removed prior to methanol addition (100 μL), releasing chlorophyll a from the remaining algal biofilms. The MIC for adhesion was defined as the lowest compound concentration causing a reduction in […]. Toxicity experiments were performed in an analogous manner to those described for the bacterial assays.

[13] = system: Porphyridium purpureum; assay: Microalgal adhesion assay (chlorophyll a); type: cell-based; conditions: 120 h, 5 days incubation, 10–0.01 μg/mL tested, read-out: MIC against the adhesion (A) of microalgae, P. purpureum
From the text: as §1, §3

[14] = system: Cylindrotheca closterium; assay: Microalgal growth assay (chlorophyll a); type: cell-based; conditions: 120 h, 5 days incubation, 10–0.01 μg/mL tested, read-out: MIC against the growth (G) of microalgae, C. closterium
From the text: as §1, §3

[15] = system: Halamphora coffeaeformis; assay: Microalgal growth assay (chlorophyll a); type: cell-based; conditions: Halamphora coffeiformis, 120 h, 5 days incubation, 10–0.01 μg/mL tested, read-out: MIC against the growth (G) of microalgae, H. coffeaformis
From the text: as §1, §3

[16] = system: Pleurochrysis roscoffensis; assay: Microalgal growth assay (chlorophyll a); type: cell-based; conditions: Chrysotila roscoffensis, 120 h, 5 days incubation, 10–0.01 μg/mL tested, read-out: MIC against the growth (G) of microalgae, P. roscoffensis
From the text: as §1, §3

[17] = system: Porphyridium purpureum; assay: Microalgal growth assay (chlorophyll a); type: cell-based; conditions: 120 h, 5 days incubation, 10–0.01 μg/mL tested, read-out: MIC against the growth (G) of microalgae, P. purpureum
From the text: as §1, §3

[18] = system: Balanus improvisus cyprid larvae; assay: whole plant or invertebrate; type: in vivo; conditions: for IC50: Amphibalanus improvisus, 120 h, read-out: IC50 (cyprid settlement inhibition); for Toxicity (%) (dead cyprids): Balanus improvisus, in vivo, 5 days, 5 μg/mL
From the text: as §1
Stock solutions of compounds in DMSO were serially diluted in untreated polystyrene Petri dishes containing 10 mL of filtered (0.2 μm) seawater, affording final concentrations ranging from 0.1 to 10 μg/mL. Freshly molted balanide cyprids (18–22) were added to each Petri dish and incubated at ambient temperature (20–25 °C) for 5 days. Cyprid metamorphosis was assessed using a dissecting microscope where the numbers of juvenile settled, free-swimming, and dead cyprids were noted. Initial compound screening was conducted at 5 μg/mL, and full IC50 determination was performed only on compounds displaying > 50% inhibition at that concentration. The IC50 was defined as the concentration preventing 50% of the cyprid settlement on the Petri dish surface. Each concentration was replicated four times (n = 4), and dishes containing 0.1% of DMSO were used as negative controls. The commercial AF agent Sea-nine™ was employed as a positive control.

[19] = system: microalgae; assay: Microalgal adhesion and growth, whole panel of four species; type: cell-based, four marine microalgae; conditions: 10–0.01 μg/mL tested
From the text: as §1, §3

[20] = system: marine bacteria; assay: Bacterial adhesion assay, whole panel of ten strains; type: cell-based, 10 marine bacterial strains; conditions: tested up to 10 μg/mL, active = MIC of 10 μg/mL or below
From the text: as §1, §2

[21] = system: Pleurochrysis roscoffensis; assay: Microalgal adhesion assay (chlorophyll a); type: cell-based; conditions: Chrysotila roscoffensis, 120 h, 5 days incubation, 10–0.01 μg/mL tested, read-out: MIC against the adhesion (A) of microalgae, P. roscoffensis
From the text: as §1, §3

[22] = system: Vibrio aestuarianus; assay: Bacterial adhesion assay (crystal violet, OD 595 nm); type: cell-based; conditions: 48 h, read-out: MIC against the adhesion of marine bacteria, V.a.
From the text: as §1, §2

Structure (SMILES) | MIC [2] [µg/mL] | MIC [3] [µg/mL] | MIC [4] [µg/mL] | MIC [5] [µg/mL] | MIC [6] [µg/mL] | MIC [7] [µg/mL] | MIC [8] [µg/mL] | MIC [9] [µg/mL] | MIC [10] [µg/mL] | MIC [14] [µg/mL] | MIC [15] [µg/mL] | MIC [16] [µg/mL] | MIC [17] [µg/mL] | IC50 [18] [µg/mL] | Toxicity (%) (dead cyprids) [18] | MIC / activity against the adhesion of all bacteria tested [20] | MIC [21] [µg/mL] | also measured
COc1cc(O)cc(CCc2cccc(O)c2)c1 [Compound 1, batatasin-III] | – | – | – | – | – | – | – | – | – | – | – | – | – | – | – | – | – | IC50 (cyprid settlement inhibition) ([1]; B. improvisus, ref Moodie et al. ([2017b])): 1.0 µg/mL (≈ 4.09 µM)
N[C@@H](Cc1ccc(O)cc1)C(=O)NCCc1ccc(O)cc1 [Compound 5, L-Tyrosinyltyramine] | – | – | – | – | – | – | – | – | – | – | – | – | – | – | – | – | – | activity against larvae settlement ([1]; B. improvisus larvae settlement, ref Ortlepp et al. [2007]): inactive
COc1ccc(C(Cc2ccccc2)=NO)cc1OC [Compound 7, 1-(3,4-dimethoxyphenyl)-1-hydroxyimino-2-phenylethane] | > 10 | > 10 | > 10 | > 10 | 10 (≈ 36.9 µM) | 10 (≈ 36.9 µM) | 1 (≈ 3.69 µM) | > 10 | > 10 | 1 (≈ 3.69 µM) | 0.1 (≈ 0.369 µM) | 0.01 (≈ 0.0369 µM) | 10 (≈ 36.9 µM) | 2.5 (≈ 9.21 µM) | 5.8 | – | – | MIC / activity against the growth of all bacteria tested [11]: modest activity; MIC [12]: 0.01 µg/mL (≈ 0.0369 µM); MIC [13]: 1 µg/mL (≈ 3.69 µM); MIC / activity against the attachment and growth of microalgae [19]: inhibited both the settlement and growth of all of the tested species
COc1ccc(C(Cc2ccc(O)cc2)=NO)cc1OC [Compound 8, 1-(3,4-dimethoxyphenyl)-1-hydroxyimino-2-(4’-hydroxyphenyl)-ethane] | 10 (≈ 34.8 µM) | > 10 | > 10 | 1 (≈ 3.48 µM) | > 10 | > 10 | > 10 | > 10 | > 10 | 10 (≈ 34.8 µM) | 10 (≈ 34.8 µM) | 10 (≈ 34.8 µM) | > 10 | 5 (≈ 17.4 µM) | 0.0 | ^aCompounds 7, 8, 10, 11, and 12 were inactive against the adhesion of all bacteria tested up to 10 μg/mL | – | –
COc1ccc(CC(=NO)c2ccc(OC)c(OC)c2)cc1 [Compound 9, 1-(3,4-dimethoxyphenyl)-1-hydroxyimino-2-(4’-methoxyphenyl)-ethane] | 10 (≈ 33.2 µM) | > 10 | > 10 | 0.1 (≈ 0.332 µM) | > 10 | > 10 | > 10 | > 10 | > 10 | 10 (≈ 33.2 µM) | 10 (≈ 33.2 µM) | > 10 | > 10 | 1.5 (≈ 4.98 µM) | 0.0 | displayed inhibitory activities | 10 (≈ 33.2 µM) | –
COc1ccc(CC(=NO)c2ccc(O)c(O)c2)cc1 [Compound 10, 1-(3,4-Dihydroxyphenyl)-1-Hydroxyimino-2-(4′-Methoxyphenyl)-Ethane] | > 10 | 1 (≈ 3.66 µM) | > 10 | > 10 | > 10 | > 10 | > 10 | 10 (≈ 36.6 µM) | > 10 | 10 (≈ 36.6 µM) | 1 (≈ 3.66 µM) | 1 (≈ 3.66 µM) | > 10 | 5 (≈ 18.3 µM) | 2.6 | ^aCompounds 7, 8, 10, 11, and 12 were inactive against the adhesion of all bacteria tested up to 10 μg/mL | 0.1 (≈ 0.366 µM) | –
COc1cc(C(Cc2ccc(O)cc2)=NO)ccc1O [Compound 12, 1-(3-methoxy-4-hydroxyphenyl)-1-hydroxyimino-2-(4’-hydroxyphenyl)-ethane] | 0.1 (≈ 0.366 µM) | 10 (≈ 36.6 µM) | 1 (≈ 3.66 µM) | 0.1 (≈ 0.366 µM) | > 10 | > 10 | > 10 | > 10 | > 10 | > 10 | 10 (≈ 36.6 µM) | 10 (≈ 36.6 µM) | > 10 | 2.5 (≈ 9.15 µM) | 3.5 | – | – | MIC / activity against the growth of all bacteria tested [11]: active against four strains
COc1cc(C(Cc2cccc(O)c2)=NO)ccc1O [Compound 13, 1-(3-methoxy-4-hydroxyphenyl)-1-hydroxyimino-2-(3’-hydroxyphenyl)-ethane] | > 10 | > 10 | > 10 | > 10 | > 10 | > 10 | > 10 | 1 (≈ 3.66 µM) | > 10 | 1 (≈ 3.66 µM) | 0.1 (≈ 0.366 µM) | 0.1 (≈ 0.366 µM) | 1 (≈ 3.66 µM) | 5 (≈ 18.3 µM) | 1.6 | displayed inhibitory activities | 1 (≈ 3.66 µM) | MIC [22]: 0.1 µg/mL (≈ 0.366 µM); MIC [12]: 0.01 µg/mL (≈ 0.0366 µM); MIC [13]: 10 µg/mL (≈ 36.6 µM); MIC / activity against the attachment and growth of microalgae [19]: inhibited both the settlement and growth of all of the tested species
